From patent publication US12319726B2, “Method for treating CD40-mediated diseases” (CASE WESTERN RESERVE UNIVERSITY, priority 2008, dated 2025)
Where a SMILES comes first, the peptide text is derived from it. [ ]: non-standard residue; d: D form.

How the values were obtained:
CD40-TRAF2,3 signaling = test: NF-κB luciferase reporter assay in mHEVc expressing hmCD40 ΔT6 (signals through the TRAF2,3 binding site); assay type: cell-based, mouse; details: 1 μM, 3 hr pre-incubation, hmCD40 ΔT6 cells; P<0.01
Description: Mouse endothelial cells (mHEVc) that express an NF-κB response element that drives transcription of a luciferase reporter plus either hmCD40 ΔT2,3 or hmCD40 ΔT6 were pre-incubated with ri control peptide (Ctr P) or ri CD40-TRAF2,3 blocking peptide (T2,3 BP; both at 1 μM) or medium alone followed by stimulation with human CD154. Data are expressed as fold-increase in normalized luciferase activity in cells stimulated with CD154 compared to cells treated with respective peptide in the absence of CD154. Data shown represent Mean±SD. Results are representative of 2 independent experiments. **P<0.01.
Peptides were tested as described using the mouse endothelial cells mHEVc that expresses a chimera of the extracellular domain of human CD40 and intracytoplasmic domain of mouse CD40 (hmCD40) with either a mutation that prevents recruitment of TRAF2,3 (hmCD40 ΔT2,3) or TRAF6 (hmCD40 ΔT6). These cells were transfected with pGL4.32luc2P/NF-κB-RE/Hygro vector (Promega Corporation, Madison, WI) encoding an NF-κB response element that drives the luciferase reporter gene luc2P (Photinus pyralis). Cells were pre-incubated with peptides for 3 hr. followed by stimulation with human CD154. Luciferase activity was assessed using a Steady-Glo luciferase assay system (Promega Corporation) and a luminometer. The effects of peptides on cell viability were examined using alamarBlue cell viability assay. […]

human Müller cells = assay type: cell-based
Excerpt: (§1) Peptide consisted of the TRAF2,3 binding site of CD40 that was made cell permeable by linking them to the TAT47-57 cell penetrating peptide. Peptides were synthesized using D-amino acids following reverse amino acid sequence (ri format). The sequences for the CD40-TRAF2,3 blocking peptide was —NH2-rrrqrrkkrgy ghlteqvhaatn-OH (SEQ ID NO: 49). The TAT47-57 sequence is underlined. The peptide contains a proline (p) to histidine (h) substitution (shown in italics) that enhances affinity to TRAF2. Control (scrambled) peptide consisted of NH2-rrrqrrkkrgy ntqalahtgevh-OH (SEQ ID NO: 50). The blocking peptide was also synthesized with Alexa Fluor 488 conjugated via maleimide coupling to an additional Cys in the N terminus. Peptides were manufactured by Biopeptide Co. (San Diego, CA) and were low in endotoxin and >98% pure by HPLC. Peptides were used at 1 μM in vitro experiments and 1 μg for in vivo studies unless otherwise stated. Peptides were not toxic to human Müller and retinal endothelial cells as assessed by alamarBlue cell viability assay (Invitrogen Corporation).
(§2) Primary human retinal endothelial cells were obtained as described (9) and cultured in complete medium supplemented with endothelial cell growth supplement from bovine pituitary (15 μg/ml; Sigma Chemical, St Louis, MO) and insulin/transferrin/selenium (Sigma Chemical). Cell identity was confirmed by incorporation of acetylated low-density lipoprotein (>90%). Endothelial cells were used between passages 3 to 6. The human Müller cell line MIO M1 (gift from Dr. Gloria Limb; University College London, UK; >95% vimentin^+, CRALBP^+ and GFAP^−) was also used. Endothelial cells were incubated with multimeric human CD154 to induce CD40 stimulation (obtained from Dr. Richard Kornbluth, Multimeric Biotherapeutics Inc., La Jolla, CA) or with a non-functional CD154 mutant (T147N) as control.
(§3) Peptides were tested as described using the mouse endothelial cells mHEVc that expresses a chimera of the extracellular domain of human CD40 and intracytoplasmic domain of mouse CD40 (hmCD40) with either a mutation that prevents recruitment of TRAF2,3 (hmCD40 ΔT2,3) or TRAF6 (hmCD40 ΔT6). These cells were transfected with pGL4.32luc2P/NF-κB-RE/Hygro vector (Promega Corporation, Madison, WI) encoding an NF-κB response element that drives the luciferase reporter gene luc2P (Photinus pyralis). Cells were pre-incubated with peptides for 3 hr. followed by stimulation with human CD154. Luciferase activity was assessed using a Steady-Glo luciferase assay system (Promega Corporation) and a luminometer. The effects of peptides on cell viability were examined using alamarBlue cell viability assay.

[1] = system: human retinal endothelial cells; assay type: cell-based
Excerpt: as §1, §2, §3

[2] = system: human retinal endothelial cells; test: ICAM-1 upregulation in human retinal endothelial cells (flow cytometry); assay type: cell-based; details: 1 μM, 24 h
Description: FIG. 18 illustrates graphs showing ri CD40-TRAF2,3 blocking peptide inhibits CD40-driven upregulation of ICAM-1. Human retinal endothelial cells were treated with ri control peptide (Ctr P) or ri CD40-TRAF2,3 blocking peptide (T2,3 BP; both at 1 μM) followed by stimulation with CD154 or TNF-α. Expression of ICAM-1 was assessed by flow cytometry at 24 h. Data shown represent Mean±SD. Results are representative of 2 independent experiments. **P<0.01.
as §2
Cells were incubated with anti-ICAM-1 mAb (eBiosciences). After fixation with 1% paraformaldehyde, cells were analyzed using an LSR II (Becton Dickinson). […]

- NF-κB activity (luciferase) after human CD154 (CD40-TRAF2,3 signaling): inhibited NF-κB activity
SMILES: CC(C)C[C@@H](NC(=O)[C@@H](Cc1c[nH]cn1)NC(=O)CNC(=O)[C@@H](Cc1ccc(O)cc1)NC(=O)CNC(=O)[C@@H](CCCNC(=N)N)NC(=O)[C@@H](CCCCN)NC(=O)[C@@H](CCCCN)NC(=O)[C@@H](CCCNC(=N)N)NC(=O)[C@@H](CCCNC(=N)N)NC(=O)[C@@H](CCC(N)=O)NC(=O)[C@@H](CCCNC(=N)N)NC(=O)[C@@H](CCCNC(=N)N)NC(=O)[C@H](N)CCCNC(=N)N)C(=O)N[C@@H](C(=O)N[C@H](CCC(=O)O)C(=O)N[C@H](CCC(N)=O)C(=O)N[C@@H](C(=O)N[C@H](Cc1c[nH]cn1)C(=O)N[C@H](C)C(=O)N[C@H](C)C(=O)N[C@@H](C(=O)N[C@H](CC(N)=O)C(=O)O)[C@H](C)O)C(C)C)[C@H](C)O [ri CD40-TRAF2,3 blocking peptide, NH2-rrrqrrkkrgy ghlteqvhaatn-OH] (H-[dR][dR][dR][dQ][dR][dR][dK][dK][dR]G[dY]G[dH][dL][dT][dE][dQ][dV][dH][dA][dA][dT][dN]-OH)
- toxicity (alamarBlue cell viability assay) (human Müller cells): not toxic
- toxicity (alamarBlue cell viability assay) [1]: not toxic
- upregulation of ICAM-1 in response to CD154 ([2]; CD154 stimulation, P<0.01): impaired upregulation of ICAM-1
- TNF-α-induced upregulation of ICAM-1 ([2]; TNF-α stimulation): no effect
